Test results from ChEMBL document CHEMBL5442168, “ASAP - In vitro liver microsomal stability” (2024).
Where “and” joins values, the source holds several entries; their conditions need not be identical. Identical values can stand only once. Blank lines part the entries; values can stand above or below the compound they belong to.

How the values were obtained:
[1] = (§1) Human liver microsomal stability of compound in microsomal protein, PBS buffer pH 7.4, NADPH, glucose-6-phosphate and glucose-6-phosphate dehydrogenase media. Aliquotes were taken at 5 time points and after stopping the reaction, supernatants were analyzed using HPLC coupled with a tandem mass spectrometer. The elimination constant, half-life, and intrinsic clearance are determined as results using linear regression analysis. The assay has been performed by Enamine biological services, Bienta Ltd.The protocol is publicly available: dx.doi.org/10.17504/protocols.io.5qpvokdb9l4o/v1; type: ADME, microsomes, Microsome; settings: for half-life / microsomal CLint: liver microsomes; for Remaining / Remaining (without cofactor) / CLint / T1/2: microsomes
[2] = as §1, with “Mouse” for “Human”; type: ADME, microsomes, Microsome; settings: for half-life / microsomal CLint: liver microsomes; for Remaining / Remaining (without cofactor) / CLint / T1/2: microsomes
For Remaining (without cofactor) in this document: time not given here.
For Remaining in this document: time not given here.

half-life [1]: 14.4 min
microsomal CLint [1]: 116 µL/min/mg
CLint [1]: 115 µL/min/mg
Remaining [1]: 15%
Remaining (without cofactor) [1]: 95% and 103%
T1/2 [1]: 14.5 min
half-life [2]: 27.4 min
microsomal CLint [2]: 61 µL/min/mg
CLint [2]: 96 µL/min/mg
Remaining [2]: 37% and 20%
Remaining (without cofactor) [2]: 109% and 111%
T1/2 [2]: 17.4 min
SMILES: CC(C)[C@@H](Nc1ncnc2[nH]c(-c3cnn(CC(N)=O)c3)cc12)c1ccc2c(c1)S(=O)(=O)CCC2

half-life [1]: 25.1 min
microsomal CLint [1]: 67 µL/min/mg
Remaining [1]: 33%
Remaining (without cofactor) [1]: 98%
half-life [2]: 41.8 min
microsomal CLint [2]: 40 µL/min/mg
Remaining [2]: 51%
Remaining (without cofactor) [2]: 96%
SMILES: CNCc1cc(-c2cc3c(N[C@H](c4ccc5c(c4)S(=O)(=O)CCC5)C(C)C)ncnc3[nH]2)co1

half-life [1]: 1.8 min
microsomal CLint [1]: 935 µL/min/mg
Remaining [1]: 0%
Remaining (without cofactor) [1]: 101%
half-life [2]: 5.4 min
microsomal CLint [2]: 311 µL/min/mg
Remaining [2]: 1%
Remaining (without cofactor) [2]: 90%
SMILES: CC(C)[C@H](Nc1ncnc2[nH]c(-c3cnn(C)c3C#N)cc12)c1ccc2c(c1)S(=O)(=O)CCC2

half-life [1]: 134 min
microsomal CLint [1]: 12 µL/min/mg
Remaining [1]: 85%
Remaining (without cofactor) [1]: 90%
half-life [2]: 359 min
microsomal CLint [2]: 5 µL/min/mg
Remaining [2]: 99%
Remaining (without cofactor) [2]: 110%
SMILES: CC(C)[C@H](Nc1ncnc2[nH]c(-c3cnn(CC(N)=O)c3)cc12)c1ccc2c(n1)OCCO2

half-life [1]: 18.1 min
microsomal CLint [1]: 92 µL/min/mg
Remaining [1]: 22%
Remaining (without cofactor) [1]: 97%
half-life [2]: 13.5 min
microsomal CLint [2]: 124 µL/min/mg
Remaining [2]: 13%
Remaining (without cofactor) [2]: 98%
SMILES: CC(C)[C@H](Nc1ncnc2[nH]c(-c3cnn(CC(=O)N(C)C)c3)cc12)c1ccc2c(c1)S(=O)(=O)CCC2

Remaining (without cofactor) [1]: 103% and 97%
half-life [2]: 19 min
microsomal CLint [2]: 88 µL/min/mg
CLint [2]: 72 µL/min/mg
Remaining [2]: 24% and 29%
Remaining (without cofactor) [2]: 109% and 92%
T1/2 [2]: 23.2 min
SMILES: CCNC(=O)c1cc2c(N[C@@H](c3ccc4c(c3)OCCO4)C(C)C)ncnc2[nH]1

half-life [1]: 26.2 min
microsomal CLint [1]: 64 µL/min/mg
Remaining [1]: 33%
Remaining (without cofactor) [1]: 95%
half-life [2]: 65.5 min
microsomal CLint [2]: 26 µL/min/mg
Remaining [2]: 66%
Remaining (without cofactor) [2]: 99%
SMILES: CCNC(=O)c1cc2c(N[C@@H](c3ccc4c(c3)S(=O)(=O)CCO4)C(C)C)ncnc2[nH]1

half-life [1]: 160 min
microsomal CLint [1]: 10 µL/min/mg
Remaining [1]: 86%
Remaining (without cofactor) [1]: 95%
half-life [2]: 45.1 min
microsomal CLint [2]: 37 µL/min/mg
Remaining [2]: 54%
Remaining (without cofactor) [2]: 89%
SMILES: CC(C)[C@H](Nc1ncnc2[nH]ccc12)c1ccc2c(c1)NC(=O)CO2

half-life [1]: 100 min
microsomal CLint [1]: 17 µL/min/mg
Remaining [1]: 78%
Remaining (without cofactor) [1]: 116%
half-life [2]: 20.7 min
microsomal CLint [2]: 81 µL/min/mg
Remaining [2]: 27%
Remaining (without cofactor) [2]: 96%
SMILES: CC(C)[C@H](Nc1ncnc2[nH]c(-c3cnn(C)c3C#N)cc12)c1ccc2c(n1)OCCO2

half-life [1]: 14.6 min
microsomal CLint [1]: 115 µL/min/mg
Remaining [1]: 16%
Remaining (without cofactor) [1]: 101%
half-life [2]: 20.7 min
microsomal CLint [2]: 81 µL/min/mg
Remaining [2]: 27%
Remaining (without cofactor) [2]: 96%
SMILES: CC(C)[C@H](Nc1ncnc2[nH]c(-c3cnn(C)c3C#N)cc12)c1ccc2c(c1)NC(=O)CO2

half-life [1]: 11.8 min
microsomal CLint [1]: 142 µL/min/mg
CLint [1]: 108 µL/min/mg
Remaining [1]: 9% and 18%
Remaining (without cofactor) [1]: 110% and 114%
T1/2 [1]: 15.4 min
half-life [2]: 28.1 min
microsomal CLint [2]: 59 µL/min/mg
CLint [2]: 45 µL/min/mg
Remaining [2]: 39% and 48%
Remaining (without cofactor) [2]: 98% and 114%
T1/2 [2]: 36.8 min
SMILES: CC(C)[C@@H](Nc1ncnc2[nH]c(-c3cnn(CC(=O)N(C)C)c3)cc12)c1ccc2c(c1)OCCO2

half-life [1]: 9.9 min
microsomal CLint [1]: 169 µL/min/mg
Remaining [1]: 7%
Remaining (without cofactor) [1]: 95%
half-life [2]: 6.5 min
microsomal CLint [2]: 255 µL/min/mg
Remaining [2]: 1%
Remaining (without cofactor) [2]: 98%
SMILES: CC(C)[C@H](Nc1ncnc2[nH]c(-c3cnn(C)c3)cc12)c1ccc2c(c1)S(=O)(=O)CCC2

half-life [1]: 3.4 min
microsomal CLint [1]: 490 µL/min/mg
CLint [1]: 516 µL/min/mg
Remaining [1]: 1% and 0%
Remaining (without cofactor) [1]: 94% and 101%
T1/2 [1]: 3.2 min
half-life [2]: 3.8 min
microsomal CLint [2]: 440 µL/min/mg
CLint [2]: 709 µL/min/mg
Remaining [2]: 0%
Remaining (without cofactor) [2]: 96% and 106%
T1/2 [2]: 2.4 min
SMILES: CC(C)[C@@H](Nc1ncnc2[nH]c(-c3cnn(C)c3C#N)cc12)c1ccc2c(c1)S(=O)(=O)CCC2

half-life [1]: 23.7 min
microsomal CLint [1]: 70 µL/min/mg
CLint [1]: 51 µL/min/mg
Remaining [1]: 30% and 43%
Remaining (without cofactor) [1]: 97% and 98%
T1/2 [1]: 32.6 min
half-life [2]: 11.5 min
microsomal CLint [2]: 145 µL/min/mg
CLint [2]: 189 µL/min/mg
Remaining [2]: 9% and 5%
Remaining (without cofactor) [2]: 92%
T1/2 [2]: 8.8 min
SMILES: CC(C)[C@@H](Nc1ncnc2[nH]c(-c3cnn(C)c3C#N)cc12)c1ccc2c(n1)NC(=O)CO2

Second part, the compound before the results:

SMILES: CC(C)[C@H](Nc1ncnc2[nH]cc(C(=O)NC3CC3)c12)c1ccc2c(c1)S(=O)(=O)CCC2
half-life [1]: 320 min
microsomal CLint [1]: 5 µL/min/mg
Remaining [1]: 90%
Remaining (without cofactor) [1]: 112%
half-life [2]: 39.5 min
microsomal CLint [2]: 42 µL/min/mg
Remaining [2]: 50%
Remaining (without cofactor) [2]: 102%

SMILES: COCCNC(=O)c1c[nH]c2ncnc(N[C@@H](c3ccc4c(c3)S(=O)(=O)CCC4)C(C)C)c12
half-life [1]: 3.1 min
microsomal CLint [1]: 540 µL/min/mg
Remaining [1]: 0%
Remaining (without cofactor) [1]: 106%
half-life [2]: 1.9 min
microsomal CLint [2]: 888 µL/min/mg
Remaining [2]: 0%
Remaining (without cofactor) [2]: 99%

SMILES: CC(C)[C@@H](Nc1ncnc2[nH]c(C(=O)N[C@H]3CCN(C)C3)cc12)c1ccc2c(c1)S(=O)(=O)CCC2
half-life [1]: 64 min
microsomal CLint [1]: 26 µL/min/mg
Remaining [1]: 66%
Remaining (without cofactor) [1]: 107%
half-life [2]: 434 min
microsomal CLint [2]: 4 µL/min/mg
Remaining [2]: 92%
Remaining (without cofactor) [2]: 92%

SMILES: CC(C)(C)[C@@H](Nc1ncnc2[nH]c(-c3cnn(CC(N)=O)c3)cc12)c1ccc2c(n1)OCCO2
half-life [1]: 46 min
microsomal CLint [1]: 36 µL/min/mg
CLint [1]: 42 µL/min/mg
Remaining [1]: 55% and 49%
Remaining (without cofactor) [1]: 96% and 107%
T1/2 [1]: 39.8 min
half-life [2]: 53.1 min
microsomal CLint [2]: 31 µL/min/mg
CLint [2]: 30 µL/min/mg
Remaining [2]: 60% and 59%
Remaining (without cofactor) [2]: 90% and 109%
T1/2 [2]: 56.2 min

SMILES: COc1ccc2c(c1)CCN(c1ncnc3[nH]ccc13)[C@H]2C(C)C
half-life [1]: 27.8 min
microsomal CLint [1]: 60 µL/min/mg
Remaining [1]: 38%
Remaining (without cofactor) [1]: 103%
half-life [2]: 5.2 min
microsomal CLint [2]: 321 µL/min/mg
Remaining [2]: 1%
Remaining (without cofactor) [2]: 83%

SMILES: COc1ccc([C@@H](NC(=O)c2[nH]cnc3nccc2-3)C(C)c2nnn[nH]2)cc1 (stereo partly drawn)
half-life [1]: 799 min
microsomal CLint [1]: 2 µL/min/mg
Remaining [1]: 92%
Remaining (without cofactor) [1]: 103%
half-life [2]: 2880 min
microsomal CLint [2]: 1 µL/min/mg
Remaining [2]: 99%
Remaining (without cofactor) [2]: 92%

SMILES: CNC(=O)c1cc2c(N[C@H](c3ccc4c(c3)S(=O)(=O)CCC4)C(C)C)ncnc2[nH]1
half-life [1]: 25 min
microsomal CLint [1]: 67 µL/min/mg
Remaining [1]: 33%
Remaining (without cofactor) [1]: 107%
half-life [2]: 35.3 min
microsomal CLint [2]: 47 µL/min/mg
Remaining [2]: 42%
Remaining (without cofactor) [2]: 106%

SMILES: COc1ccc([C@@H](CC(=O)O)NC(=O)c2ncnc3[nH]ccc23)cc1
half-life [1]: 240 min
microsomal CLint [1]: 7 µL/min/mg
Remaining [1]: 87%
Remaining (without cofactor) [1]: 88%
half-life [2]: 686 min
microsomal CLint [2]: 2 µL/min/mg
Remaining [2]: 94%
Remaining (without cofactor) [2]: 96%

SMILES: CC(C)[C@H](Nc1ncnc2[nH]c(C(=O)N[C@@H]3CCN(C)C3)cc12)c1ccc2c(c1)S(=O)(=O)CCC2
half-life [1]: 627 min
microsomal CLint [1]: 3 µL/min/mg
Remaining [1]: 98%
Remaining (without cofactor) [1]: 100%
half-life [2]: 649 min
microsomal CLint [2]: 3 µL/min/mg
Remaining [2]: 104%
Remaining (without cofactor) [2]: 107%

SMILES: CCNC(=O)c1cc2c(N[C@@H](c3ccc4c(c3)S(=O)(=O)NCC4)C(C)C)ncnc2[nH]1
half-life [1]: 19.7 min
microsomal CLint [1]: 85 µL/min/mg
Remaining [1]: 24%
Remaining (without cofactor) [1]: 107%
half-life [2]: 36.8 min
microsomal CLint [2]: 45 µL/min/mg
Remaining [2]: 49%
Remaining (without cofactor) [2]: 101%

SMILES: CC(C)(C)[C@@H](Nc1ncnc2[nH]c(-c3cnn(CC(N)=O)c3)cc12)c1ccc2c(c1)OCCO2
half-life [1]: 12.6 min
microsomal CLint [1]: 133 µL/min/mg
CLint [1]: 100 µL/min/mg
Remaining [1]: 11% and 18%
Remaining (without cofactor) [1]: 87% and 109%
T1/2 [1]: 16.8 min
half-life [2]: 35.2 min
microsomal CLint [2]: 47 µL/min/mg
CLint [2]: 39 µL/min/mg
Remaining [2]: 46% and 54%
Remaining (without cofactor) [2]: 107% and 106%
T1/2 [2]: 43.1 min
